Test results as given in patent US9751861B2, “N1-(3,3,3-trifluoro-2-hydroxo-2-methylpropionyl)-piperidine derivatives as inhibitors of pyruvate dehydrogenase kinase” (MERCK PATENT GMBH, priority 2013, dated 2017).

Experiments:
[1] = biological target: T1, PDHK2 (Homo sapiens, UniProt Q15119); experiment: Biochemical activity testing of PDHK2: PDC inactivation assay; settings: human rec PDHK2, PDC from porcine heart, ATP 5 μM; read-out: IC50 PDHK2 (enzyme assay)
T1 construct: purchased Carna Bioscience
In short: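 Human recombinant PDHK2 (137 nM final) preincubated 30 min at RT with porcine heart PDC (20 mU/ml) and compound in pH 7.0 phosphate buffer, then phosphorylated with 5 μM ATP for 30 min at 37 °C. Residual PDC activity read as NADH fluorescence increase (Ex 340/Em 450) over 45 min; inhibitor-free reaction as full value, 3 mM DCA as zero, IC50 derived.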

[2] = biological target: T2, human PDHK2 (12-407) (Homo sapiens, UniProt Q15119); experiment: Isothermal titration calorimetry (ITC) binding; settings: 30° C., pH 7.5
T2 construct: The human PDHK2 (12-407) was produced in E. coli; His-tag (cleaved yes); made in house; host or cells: E. coli
In short: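 Untagged PDHK2 (12-407) from E. coli at 50 μM titrated into 5 μM compound at 30° C in pH 7.5 HEPES/KCl/MgCl2/phosphate buffer, ≤1% DMSO. One-site fit gave KA, ΔH^obs and N after heat-of-dilution correction; protein concentration referenced to a standard inhibitor and compound concentration adjusted to 1:1 stoichiometry.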

[3] = tested on: PDH-Elalpha (pSer300); experiment: Cellular immunofluorescence assay in HEK293T cells; type: cell-based; settings: Homo sapiens, HEK-293T, 5 hours incubation, anti-PDH-E1alpha pSer300 immunofluorescence, read-out: IC50 (cell data)
In short: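 HEK293T cells were exposed to compound for 5 hours, then fixed, permeabilised and immunostained for PDH-Elalpha pSer300 with Hoechst counterstain, read by laser scanning cytometry. Percent effect was normalized to a pharmacological inhibitor control and fitted to dose-response curves.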

Compound	IC50 [1] [nM]	Kd [2] [nM]	IC50 [3] [nM]
C[C@@H]1CN(C(=O)[C@@](C)(O)C(F)(F)F)CC[C@@H]1c1ccnn1[C@H]1CC[C@@H](O)CC1 [Compound A120, (R)-3,3,3-Trifluoro-2-hydroxy-1-{(3S,4S)-4-[2-(4-hydroxy-cyclohexyl)-2H-pyrazol-3-yl]-3-methyl-piperidin-1-yl}-2-methyl-propan-1-one]	< 300	< 300	300 to 3000
Cc1cc(C2CCN(C(=O)[C@@](C)(O)C(F)(F)F)CC2)n(-c2ccccc2)n1 [Compound A98, (R)-3,3,3-Trifluoro-2-hydroxy-2-methyl-1-[4-(5-methyl-2-phenyl-2H-pyrazol-3-yl)-piperidin-1-yl]-propan-1-one]	< 300	< 300	300 to 3000
C[C@@](O)(C(=O)N1CCC(c2ccnn2CC(F)(F)F)CC1)C(F)(F)F [Compound A77, (R)-3,3,3-Trifluoro-2-hydroxy-2-methyl-1-{4-[2-(2,2,2-trifluoro-ethyl)-2H-pyrazol-3-yl]-piperidin-1-yl}-propan-1-one]	3000 to 50000	300 to 3000	3000 to 50000
CCc1ccc(-n2nccc2C2CCN(C(=O)[C@@](C)(O)C(F)(F)F)CC2)cc1 [Compound A24, (R)-1-{4-[2-(4-Ethyl-phenyl)-2H-pyrazol-3-yl]-piperidin-1-yl}-3,3,3-trifluoro-2-hydroxy-2-methyl-propan-1-one]	< 300	< 300	300 to 3000
Cc1csc(-n2nccc2C2CCN(C(=O)[C@@](C)(O)C(F)(F)F)CC2)n1 [Compound A86, (R)-3,3,3-Trifluoro-2-hydroxy-2-methyl-1-[4-[2-(4-methylthiazol-2-yl)-2H-pyrazol-3-yl]-1-piperidyl]propan-1-one]	300 to 3000	< 300	3000 to 50000
COc1ccc(-n2nncc2C2CCN(C(=O)[C@@](C)(O)C(F)(F)F)CC2)cc1 [Compound A57, (R)-3,3,3-Trifluoro-2-hydroxy-1-{4-[3-(4-methoxy-phenyl)-3H-[1,2,3]triazol-4-yl]-piperidin-1-yl}-2-methyl-propan-1-one]	300 to 3000	300 to 3000	3000 to 50000
C[C@@](O)(C(=O)N1CCC(c2ccnn2-c2ccc(F)cc2F)CC1)C(F)(F)F [Compound A26, (R)-1-{4-[2-(2,4-Difluoro-phenyl)-2H-pyrazol-3-yl]-piperidin-1-yl}-3,3,3-trifluoro-2-hydroxy-2-methyl-propan-1-one]	< 300	< 300	300 to 3000
C[C@@](O)(C(=O)N1CCC(c2ccnn2-c2cccc(Cl)c2F)CC1)C(F)(F)F [Compound A15, (R)-1-{4-[2-(3-Chloro-2-fluoro-phenyl)-2H-pyrazol-3-yl]-piperidin-1-yl}-3,3,3-trifluoro-2-hydroxy-2-methyl-propan-1-one]	< 300	< 300	< 300
CC(C)(O)c1ccc(-n2nccc2C2CCN(C(=O)[C@@](C)(O)C(F)(F)F)CC2)c(F)c1 [Compound A92, (R)-3,3,3-Trifluoro-1-[4-[2-[2-fluoro-4-(1-hydroxy-1-methyl-ethyl)phenyl]-2H-pyrazol-3-yl]-1-piperidyl]-2-hydroxy-2-methyl-propan-1-one]	300 to 3000	< 300	300 to 3000
C[C@@H]1CN(C(=O)[C@@](C)(O)C(F)(F)F)CC[C@@H]1c1ccnn1[C@H]1CC[C@H](O)CC1 [Compound A121, (R)-3,3,3-Trifluoro-2-hydroxy-1-{(3S,4S)-4-[2-(4-hydroxy-cyclohexyl)-2H-pyrazol-3-yl]-3-methyl-piperidin-1-yl}-2-methyl-propan-1-one]	< 300	< 300	300 to 3000

Further lines, results first:

IC50 [1] [nM]	Kd [2] [nM]	IC50 [3] [nM]	Compound
300 to 3000	< 300	300 to 3000	CC1CN(C(=O)[C@@](C)(O)C(F)(F)F)CCC1c1ccn(-c2ccc(F)cc2)n1 (stereo partly drawn) [Compound A44, (R)-1-{4-[1-(4-Fluoro-phenyl)-1H-pyrazol-3-yl]-3-methyl-piperidin-1-yl}-3,3,3-trifluoro-2-hydroxy-2-methyl-propan-1-one]
300 to 3000	< 300	300 to 3000	Cc1ccc(-n2nccc2C2CCN(C(=O)[C@@](C)(O)C(F)(F)F)CC2)nc1 [Compound A83, (R)-3,3,3-Trifluoro-2-hydroxy-2-methyl-1-{4-[2-(5-methyl-pyridin-2-yl)-2H-pyrazol-3-yl]-piperidin-1-yl}-propan-1-one]
< 300	< 300	300 to 3000	COc1ccc(-n2nccc2C2CCN(C(=O)[C@@](C)(O)C(F)(F)F)CC2)cc1 [Compound A2, (R)-3,3,3-Trifluoro-2-hydroxy-1-{4-[2-(4-methoxy-phenyl)-2H-pyrazol-3-yl]-piperidin-1-yl}-2-methyl-propan-1-one]
< 300	< 300	300 to 3000	COc1ccc(-n2nccc2C2CCN(C(=O)[C@@](C)(O)C(F)(F)F)CC2)cc1Cl [Compound A48, (R)-3,3,3-Trifluoro-2-hydroxy-1-{4-[2-(3-chloro-4-methoxy-phenyl)-2H-pyrazol-3-yl]-piperidin-1-yl}-2-methyl-propan-1-one]
< 300	< 300	300 to 3000	CC(C)(O)c1ccc(-n2nccc2C2CCN(C(=O)[C@@](C)(O)C(F)(F)F)CC2)cc1 [Compound A20, (R)-3,3,3-Trifluoro-2-hydroxy-1-(4-{2-[4-(1-hydroxy-1-methyl-ethyl)-phenyl]-2H-pyrazol-3-yl}-piperidin-1-yl)-2-methyl-propan-1-one]
< 300	< 300	300 to 3000	C[C@@](O)(C(=O)N1CCC(c2cncn2-c2ccc(Cl)cc2F)CC1)C(F)(F)F [Compound A126, (R)-1-{4-[3-(4-Chloro-2-fluoro-phenyl)-3H-imidazol-4-yl]-piperidin-1-yl}-3,3,3-trifluoro-2-hydroxy-2-methyl-propan-1-one]
< 300	< 300	300 to 3000	C[C@@](O)(C(=O)N1CCC(c2ccnn2-c2ccc(C(F)(F)F)cc2Cl)CC1)C(F)(F)F [Compound A18, (R)-1-{4-[2-(2-Chloro-4-trifluoromethyl-phenyl)-2H-pyrazol-3-yl]-piperidin-1-yl}-3,3,3-trifluoro-2-hydroxy-2-methyl-propan-1-one]
< 300	< 300	300 to 3000	C[C@@](O)(C(=O)N1CCC(c2ccnn2-c2ccc(OC(F)(F)F)cc2)CC1)C(F)(F)F [Compound A95, (R)-3,3,3-Trifluoro-2-hydroxy-2-methyl-1-[4-[2-[4-(trifluoromethoxy)-phenyl]-2H-pyrazol-3-yl]-1-piperidyl]propan-1-one]
300 to 3000	< 300	300 to 3000	C[C@@](O)(C(=O)N1CCC(c2cncn2-c2ccc(C(F)(F)F)cc2)CC1)C(F)(F)F [Compound A127, (R)-3,3,3-Trifluoro-2-hydroxy-2-methyl-1-{4-[3-(4-trifluoromethyl-phenyl)-3H-imidazol-4-yl]-piperidin-1-yl}-propan-1-one]
300 to 3000	< 300	3000 to 50000	C[C@@](O)(C(=O)N1CCC(c2ccnn2-c2nc3ccccc3s2)CC1)C(F)(F)F [Compound A117, (R)-1-[4-(2-Benzothiazol-2-yl-2H-pyrazol-3-yl)-piperidin-1-yl]-3,3,3-trifluoro-2-hydroxy-2-methyl-propan-1-one]
